From patent US20100099561A1, “HETEROBICYCLIC ALKYLTHIO-BRIDGED ISOXAZOLINES” (E.I. DU PONT DE NEMOURS AND COMPANY, priority 2008, published 2010)

What was measured:
Type in all cases: in vivo
[1] = test system: barnyardgrass (Echinochloa crus-galli); assay: Test A preemergence, barnyardgrass; conditions: 0 to 100 scale (0 no effect, 100 complete control)
Description: (§1) Seeds of barnyardgrass (Echinochloa crus-galli), large crabgrass (Digitaria sanguinalis), giant foxtail (Setaria faberi), morningglory (Ipomoea spp.), pigweed (Amaranthus retroflexus), velvetleaf (Abutilon theophrasti), wheat (Triticum aestivum), and corn (Zea mays) were planted into a blend of loam soil and sand and treated preemergence with a directed soil spray using test chemicals formulated in a non-phytotoxic solvent mixture which included a surfactant. At the same time these species were also treated with postemergence applications of test compounds formulated in the same manner. Plants ranged in height from two to ten cm and were in the one- to two-leaf stage for the postemergence treatment. Treated plants and untreated controls were maintained in a greenhouse for approximately ten days, after which time all treated plants were compared to untreated controls and visually evaluated for injury. Plant response ratings, summarized in Table A, are based on a 0 to 100 scale where 0 is no effect and 100 is complete control. A dash (-) response means no test result.

[2] = test system: large crabgrass (Digitaria sanguinalis); assay: Test A preemergence, large crabgrass; conditions: 0 to 100 scale (0 no effect, 100 complete control)
Description: as §1

[3] = test system: giant foxtail (Setaria faberi); assay: Test A preemergence, giant foxtail; conditions: 0 to 100 scale (0 no effect, 100 complete control)
Description: as §1

[4] = test system: morningglory (Ipomoea spp.); assay: Test A preemergence, morningglory; conditions: 0 to 100 scale (0 no effect, 100 complete control)
Description: as §1

[5] = test system: pigweed (Amaranthus retroflexus); assay: Test A preemergence, pigweed; conditions: 0 to 100 scale (0 no effect, 100 complete control)
Description: as §1

[6] = test system: velvetleaf (Abutilon theophrasti); assay: Test A preemergence, velvetleaf; conditions: 0 to 100 scale (0 no effect, 100 complete control)
Description: as §1

[7] = test system: wheat (Triticum aestivum); assay: Test A preemergence, wheat; conditions: 0 to 100 scale (0 no effect, 100 complete control)
Description: as §1

corn (Zea mays) [8] = assay: Test A preemergence, corn; conditions: 0 to 100 scale (0 no effect, 100 complete control)
Description: as §1

[9] = test system: barnyardgrass (Echinochloa crus-galli); assay: Test A postemergence, barnyardgrass; conditions: 0 to 100 scale (0 no effect, 100 complete control)
Description: as §1

[10] = test system: large crabgrass (Digitaria sanguinalis); assay: Test A postemergence, large crabgrass; conditions: 0 to 100 scale (0 no effect, 100 complete control)
Description: as §1

[11] = test system: giant foxtail (Setaria faberi); assay: Test A postemergence, giant foxtail; conditions: 0 to 100 scale (0 no effect, 100 complete control)
Description: as §1

[12] = test system: morningglory (Ipomoea spp.); assay: Test A postemergence, morningglory; conditions: 0 to 100 scale (0 no effect, 100 complete control)
Description: as §1

[13] = test system: pigweed (Amaranthus retroflexus); assay: Test A postemergence, pigweed; conditions: 0 to 100 scale (0 no effect, 100 complete control)
Description: as §1

[14] = test system: velvetleaf (Abutilon theophrasti); assay: Test A postemergence, velvetleaf; conditions: 0 to 100 scale (0 no effect, 100 complete control)
Description: as §1

[15] = test system: wheat (Triticum aestivum); assay: Test A postemergence, wheat; conditions: 0 to 100 scale (0 no effect, 100 complete control)
Description: as §1

corn (Zea mays) [16] = assay: Test A postemergence, corn; conditions: 0 to 100 scale (0 no effect, 100 complete control)
Description: as §1

rice (Oryza sativa) = assay: Test B flooded paddy test, rice; conditions: Flood, scale 0 to 100
Description: (§2) Plant species in the flooded paddy test consisted of rice (Oryza sativa), umbrella sedge (Cyperus difformis), ducksalad (Heteranthera limosa) and barnyardgrass (Echinochloa crus-galli) grown to the 2-leaf stage for testing. At time of treatment, test pots were flooded to 3 cm above the soil surface, treated by application of test compounds directly to the paddy water, and then maintained at that water depth for the duration of the test. Treated plants and controls were maintained in a greenhouse for 13 to 15 days, after which time all species were compared to controls and visually evaluated. Plant response ratings, summarized in Table B, are based on a scale of 0 to 100 where 0 is no effect and 100 is complete control. A dash (-) response means no test result.

[17] = test system: umbrella sedge (Cyperus difformis); assay: Test B flooded paddy test, umbrella sedge; conditions: Flood, scale 0 to 100
Description: as §2

[18] = test system: ducksalad (Heteranthera limosa); assay: Test B flooded paddy test, ducksalad; conditions: Flood, scale 0 to 100
Description: as §2

[19] = test system: barnyardgrass (Echinochloa crus-galli); assay: Test B flooded paddy test, barnyardgrass; conditions: Flood
Description: as §2

[20] = 250 g ai/ha, scale 0 to 100 (0 no effect, 100 complete control)

## CCn1c(=O)c(C[S+]([O-])C2=NOC(C)(C)C2)nc2cccnc21 (centres unmarked) [Compound 38]
[1]; 125 g ai/ha
  Plant response rating, Barnyardgrass: 0
[1]; 500 g ai/ha
  Plant response rating, Barnyardgrass: 0
[2]; 125 g ai/ha
  Plant response rating, Crabgrass, Large: 0
[2]; 500 g ai/ha
  Plant response rating, Crabgrass, Large: 0
[3]; 125 g ai/ha
  Plant response rating, Foxtail, Giant: 0
[3]; 500 g ai/ha
  Plant response rating, Foxtail, Giant: 0
[4]; 125 g ai/ha
  Plant response rating, Morningglory: 0
[4]; 500 g ai/ha
  Plant response rating, Morningglory: 0
[5]; 125 g ai/ha
  Plant response rating, Pigweed: 0
[5]; 500 g ai/ha
  Plant response rating, Pigweed: 0
[6]; 125 g ai/ha
  Plant response rating, Velvetleaf: 0
[6]; 500 g ai/ha
  Plant response rating, Velvetleaf: 0
[7]; 125 g ai/ha
  Plant response rating, Wheat: 0
[7]; 500 g ai/ha
  Plant response rating, Wheat: 0
Corn (Zea mays) [8]; 125 g ai/ha
  Plant response rating, Corn: 0
Corn (Zea mays) [8]; 500 g ai/ha
  Plant response rating, Corn: 0
[9]; 125 g ai/ha
  Plant response rating, Barnyardgrass: 20
[9]; 500 g ai/ha
  Plant response rating, Barnyardgrass: 30
[10]; 125 g ai/ha
  Plant response rating, Crabgrass, Large: 0
[10]; 500 g ai/ha
  Plant response rating, Crabgrass, Large: 20
[11]; 125 g ai/ha
  Plant response rating, Foxtail, Giant: 0
[11]; 500 g ai/ha
  Plant response rating, Foxtail, Giant: 0
[12]; 125 g ai/ha
  Plant response rating, Morningglory: 0
[12]; 500 g ai/ha
  Plant response rating, Morningglory: 10
[13]; 125 g ai/ha
  Plant response rating, Pigweed: 0
[13]; 500 g ai/ha
  Plant response rating, Pigweed: 0
[14]; 125 g ai/ha
  Plant response rating, Velvetleaf: 0
[14]; 500 g ai/ha
  Plant response rating, Velvetleaf: 30
[15]; 125 g ai/ha
  Plant response rating, Wheat: 0
[15]; 500 g ai/ha
  Plant response rating, Wheat: 10
Corn (Zea mays) [16]; 125 g ai/ha
  Plant response rating, Corn: 0
Corn (Zea mays) [16]; 500 g ai/ha
  Plant response rating, Corn: 0
Rice (Oryza sativa); 31 g ai/ha
  Plant response rating, Rice: 0
Rice (Oryza sativa); 62 g ai/ha
  Plant response rating, Rice: 0
Rice (Oryza sativa); 125 g ai/ha
  Plant response rating, Rice: 0
Rice (Oryza sativa); 250 g ai/ha
  Plant response rating, Rice: 0
[17]; 31 g ai/ha
  Plant response rating, Sedge, Umbrella: 0
[17]; 62 g ai/ha
  Plant response rating, Sedge, Umbrella: 0
[17]; 125 g ai/ha
  Plant response rating, Sedge, Umbrella: 0
[17]; 250 g ai/ha
  Plant response rating, Sedge, Umbrella: 0
[18]; 31 g ai/ha
  Plant response rating, Ducksalad: 0
[18]; 62 g ai/ha
  Plant response rating, Ducksalad: 0
[18]; 125 g ai/ha
  Plant response rating, Ducksalad: 0
[18]; 250 g ai/ha
  Plant response rating, Ducksalad: 0
[19]; 31 g ai/ha, scale 0 to 100
  Plant response rating, Barnyardgrass: 0
[19]; 62 g ai/ha, scale 0 to 100
  Plant response rating, Barnyardgrass: 0
[19]; 125 g ai/ha, scale 0 to 100
  Plant response rating, Barnyardgrass: 0
[19]; [20]
  Plant response rating, Barnyardgrass: 0

## CC1(C)CC(S(=O)(=O)Cc2c(C(F)(F)F)nc3cccnn3c2=O)=NO1 [Compound 45]
[1]; 125 g ai/ha
  Plant response rating, Barnyardgrass: 20
[1]; 500 g ai/ha
  Plant response rating, Barnyardgrass: 90
[2]; 125 g ai/ha
  Plant response rating, Crabgrass, Large: 20
[2]; 500 g ai/ha
  Plant response rating, Crabgrass, Large: 90
[3]; 125 g ai/ha
  Plant response rating, Foxtail, Giant: 30
[3]; 500 g ai/ha
  Plant response rating, Foxtail, Giant: 90
[4]; 125 g ai/ha
  Plant response rating, Morningglory: 0
[4]; 500 g ai/ha
  Plant response rating, Morningglory: 0
[5]; 500 g ai/ha
  Plant response rating, Pigweed: 0
[6]; 125 g ai/ha
  Plant response rating, Velvetleaf: 0
[6]; 500 g ai/ha
  Plant response rating, Velvetleaf: 0
[7]; 125 g ai/ha
  Plant response rating, Wheat: 0
[7]; 500 g ai/ha
  Plant response rating, Wheat: 10
Corn (Zea mays) [8]; 125 g ai/ha
  Plant response rating, Corn: 0
Corn (Zea mays) [8]; 500 g ai/ha
  Plant response rating, Corn: 0
[9]; 125 g ai/ha
  Plant response rating, Barnyardgrass: 30
[9]; 500 g ai/ha
  Plant response rating, Barnyardgrass: 70
[10]; 125 g ai/ha
  Plant response rating, Crabgrass, Large: 20
[10]; 500 g ai/ha
  Plant response rating, Crabgrass, Large: 70
[11]; 125 g ai/ha
  Plant response rating, Foxtail, Giant: 20
[11]; 500 g ai/ha
  Plant response rating, Foxtail, Giant: 60
[12]; 125 g ai/ha
  Plant response rating, Morningglory: 0
[12]; 500 g ai/ha
  Plant response rating, Morningglory: 30
[13]; 125 g ai/ha
  Plant response rating, Pigweed: 0
[13]; 500 g ai/ha
  Plant response rating, Pigweed: 10
[14]; 125 g ai/ha
  Plant response rating, Velvetleaf: 0
[14]; 500 g ai/ha
  Plant response rating, Velvetleaf: 0
[15]; 125 g ai/ha
  Plant response rating, Wheat: 0
[15]; 500 g ai/ha
  Plant response rating, Wheat: 0
Corn (Zea mays) [16]; 125 g ai/ha
  Plant response rating, Corn: 0
Corn (Zea mays) [16]; 500 g ai/ha
  Plant response rating, Corn: 0
Rice (Oryza sativa); 31 g ai/ha
  Plant response rating, Rice: 0
Rice (Oryza sativa); 62 g ai/ha
  Plant response rating, Rice: 0
Rice (Oryza sativa); 125 g ai/ha
  Plant response rating, Rice: 0
Rice (Oryza sativa); 250 g ai/ha
  Plant response rating, Rice: 0
[17]; 31 g ai/ha
  Plant response rating, Sedge, Umbrella: 0
[17]; 62 g ai/ha
  Plant response rating, Sedge, Umbrella: 0
[17]; 125 g ai/ha
  Plant response rating, Sedge, Umbrella: 0
[17]; 250 g ai/ha
  Plant response rating, Sedge, Umbrella: 0
[18]; 31 g ai/ha
  Plant response rating, Ducksalad: 0
[18]; 62 g ai/ha
  Plant response rating, Ducksalad: 0
[18]; 125 g ai/ha
  Plant response rating, Ducksalad: 0
[18]; 250 g ai/ha
  Plant response rating, Ducksalad: 0
[19]; 31 g ai/ha, scale 0 to 100
  Plant response rating, Barnyardgrass: 0
[19]; 62 g ai/ha, scale 0 to 100
  Plant response rating, Barnyardgrass: 0
[19]; 125 g ai/ha, scale 0 to 100
  Plant response rating, Barnyardgrass: 0
[19]; [20]
  Plant response rating, Barnyardgrass: 0
